Results on four compounds are retold here after paper PMC8472287, “Betulinic Acid Decorated with Polar Groups and Blue Emitting BODIPY Dye: Synthesis, Cytotoxicity, Cell-Cycle Analysis and Anti-HIV Profiling” (Biomedicines, 2021).

The subject of one data set is A549. Kind of data set: MTS cytotoxicity assay, A549. The class given is cell-based. As to conditions: Homo sapiens, 72 h, 3-day incubation. The gist of the method: (§1)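 Cells seeded at 25,000–35,000 cells/mL were exposed to four-fold dilutions of compound in DMSO for 72 h at 37 °C, 5% CO2. MTS added for 1–4 h, OD read at 490 nm; tumour cell survival calculated as percent of control-well OD.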

The subject of a further data set is MRC-5. In words: MTS cytotoxicity assay, MRC-5. Type of data set: cell-based. The settings on record: Homo sapiens, MRC5, 72 h, MRC-5 normal fibroblasts, 3-day incubation. The gist of the method: as §1
For a further data set, the system named is CCRF-CEM. In words: MTS cytotoxicity assay, CCRF-CEM. Type of data set: cell-based. The settings on record: Homo sapiens, 72 h, 3-day incubation. The gist of the method: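 Cells were seeded at 25,000–35,000 cells/mL, exposed to compounds in DMSO from time zero for 72 h at 37 °C, 5% CO2, then given MTS for 1–4 h with OD read at 490 nm. Survival was expressed as percent of mean untreated-control OD.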
For orientation: Tetrazolium assays rely on reduction of a dye to a coloured formazan, in cell work by metabolically active cells.

A further data set deals with U2OS. In words: MTS cytotoxicity assay, U2OS. Type of data set: cell-based. As to conditions: Homo sapiens, 72 h, 3-day incubation. The gist of the method: as §1
A further data set relates to K562-Tax. In words: MTS cytotoxicity assay, K562-Tax. The class given is cell-based. As to conditions: Homo sapiens, 72 h, K562-Tax (paclitaxel-resistant), 3-day incubation. A digest of the protocol:
as §1

For a further data set, the system named is K562. Kind of data set: MTS cytotoxicity assay, K562. The class given is cell-based. As to conditions: Homo sapiens, 72 h, 3-day incubation. The gist of the method:
as §1

For a further data set, the system named is BJ. In words: MTS cytotoxicity assay, BJ. Type of data set: cell-based. The settings on record: Homo sapiens, 72 h, BJ normal fibroblasts, 3-day incubation. A digest of the protocol: as §1
The next data set relates to CEM-DNR. Kind of data set: MTS cytotoxicity assay, CEM-DNR. Type of data set: cell-based. As to conditions: Homo sapiens, 72 h, CEM-DNR (daunorubicin resistant), 3-day incubation. The gist of the method: as §1
For data set [1], the system named is entire cell line panel. In words: MTS cytotoxicity assay, whole panel (summary in words). The settings on record: maximal tested concentration.
For another data set, the system named is HCT116. In words: MTS cytotoxicity assay, HCT116. As to conditions: Homo sapiens, HCT-116, 72 h, 3-day incubation. Type of data set: cell-based. The gist of the method: as §1
The next data set has as its system HCT116p53−/−. Kind of data set: MTS cytotoxicity assay, HCT116p53−/−. The class given is cell-based. The settings on record: Homo sapiens, HCT116-p53-null, 72 h, HCT116p53−/− (null p53 gene), 3-day incubation. The gist of the method: as §1
Data set [2] deals with entire cell line panel.
Data set [3] has as its system CCRF-CEM lymphoblasts. Kind of data set: BrU incorporation analysis (RNA synthesis). The class given is cell-based, human. As to conditions: 24 h, 5 × IC50 (high concentration).
The subject of data set [4] is CCRF-CEM lymphoblasts. Kind of data set: BrDU incorporation analysis (DNA synthesis). Type of data set: cell-based, human. As to conditions: 24 h incubation. The procedure: Cells were cultivated as in the method above and pulse-labelled with 10 μM 5-bromo-2-deoxyuridine (BrDU) for 30 min before collection to the test tubes. The cells were washed with cold 1 × PBS and fixed in ice-cold 70% ethanol. Before analysis, they were washed with 1 × PBS and incubated in 2M HCl for 30 min at room temperature. Following neutralization with 0.1M Na2B4O7 (borax), the cells were washed with 0.5% Tween-20 and 1% BSA in 1 × PBS. The cell pellets were stained using a primary anti-BrdU antibody (Exbio, Vestec, Czech Republic) for 30 min at room temperature and a secondary anti-mouse-FITC antibody (Sigma). The samples were then incubated with propidium iodide (0.1 mg mL^−1), treated with RNase A (0.5 mg mL^−1) for 1 h at room temperature in the dark and analysed as above.

The subject of data set [5] is CCRF-CEM lymphoblasts. In words: Mitotic marker pH3Ser10 flow cytometry. Type of data set: cell-based, human. As to conditions: 5 × IC50. The procedure:
(§2) CCRF-CEM cells were seeded in 6-well plates at a density of 1 × 10^6/well. […] Cells were then harvested, washed with cold 1 × PBS and fixed in ice-cold 70% ethanol. Fixed cells were incubated overnight at −20 °C, washed in hypotonic citrate buffer, treated with RNase (50 μg mL^−1) and incubated with propidium iodide for 15 min. DNA content was analysed using Becton Dickinson flow cytometer and cell cycle data were analysed in the program ModFitLT (Verity, Carrollton, TX, USA). Apoptosis was measured in a logarithmic model expressing the percentage of the particles with propidium content lower than cells in G0/G1 phase (<G1) of the cell cycle. The mitotic marker pH3Ser10 antibody (Sigma) and secondary anti-mouse-FITC antibody (Sigma) were used for labelling and subsequent flow cytometry analysis of ethanol-fixed CCRF-CEM cells.
(In general: A flow cytometer gives signals particle by particle.)

Another data set relates to HEK 293 cells. The settings on record: Resazurin assay. A general note: Resazurin is reduced to fluorescent resorufin, in cell work by metabolically active cells.
The nature of a further data set: in vitro. As to conditions: human.
Data set [6] deals with U2OS-ER, U2OS-Mito and U2OS-GA cell lines. In words: Live cell colocalization experiments. As to conditions: 10 µM, 1 h, Mander's coefficient. Type of data set: cell-based, human. The procedure:
(§3) U2OS cell line (ATCC, USA) was transduced with premade lentiviral particles (Vectalis-TaKaRa, Japan) with sequences that express fluorescent protein tag mCherry targeted to specific subcellular locations. All cell lines were prepared according to the vendor’s instructions. The U2OS-Nuc cell line was prepared by using rLV.EF1.mCherry-Nuc-9 (cat. n. 0023VCT), containing a NLS sequence that imports protein into the nucleus. The U2OS-ER cell line was transduced by rLV.EF1.mCherry-ER-9 (cat. n. 0025VCT), which contains a calreticulin signal sequence and a KDEL sequence that associates protein with the endoplasmic reticulum. The U2OS-GA cell line was transduced by rLV.EF1.mCherry-Golgi-9 (cat. n. 0022VCT), containing a human GT precursor, a protein localized in Golgi Apparatus. The U2OS-Mito cell line was prepared by using rLV.EF1.mCherry-Mito-9 (cat. n. 0024VCT), containing a mitochondrial targeting sequence.
(§4) U2OS cells with fluorescent fusion proteins (density 1.0 × 10^3 per well) were seeded into 384 CellCarrier plates (Perkin Elmer, Waltham, MA, USA) and pre-incubated for 24 h at 37 °C and 5% CO2. The attached cells were treated with tested compounds in concentration 10 µM for 1 h and subsequently rinsed with fresh media. The live-cell imaging was performed by Cell Voyager CV7000 (Yokogawa, Tokyo, Japan) spinning disc confocal microscopy system at 37 °C in a 5% CO2 atmosphere. Live cells were monitored by a 60 × water immersion objective. The fluorescent signal was excited by lasers (405 nm and 561 nm) and the emission was filtered by bandpass filters (BP 445/45 and BP 595/20). All images were post-processed, and Pearson’s and Mander’s coefficients were calculated using the JACoP plugin in Image-J software.

Another data set concerns U2OS-Nuc cell line. Kind of data set: Live cell imaging, pilot experiment. The class given is cell-based, human. The settings on record: 10 µM, 1 h incubation. The procedure:
as §3, §4

The subject of data set [7] is CCRF-CEM lymphoblasts. In words: Cell cycle and apoptosis analysis (flow cytometry, propidium iodide). As to conditions: 5 × IC50. Type of data set: cell-based, human. The procedure: as §2

Where a name gives a salt, the structure may show the parent alone. Read-outs that look alike come from different tables or passages of the source. Bounds are passed on as bounds.

Usually IC50 stands for the midpoint of a concentration-inhibition curve. The low end stands for inhibition by little substance, the high end for a need for much substance.

In the case of `C=C(C)[C@@H]1CC[C@]2(C(=O)O)CC[C@]3(C)[C@H](CC[C@@H]4[C@@]5(C)CC[C@H](O)C(C)(C)[C@@H]5CC[C@]43C)[C@@H]12` [BA, Betulinic acid], the IC50 is 22700 nM in the data set on A549; greater than 50000 nM with MRC-5; greater than 50000 nM with CCRF-CEM; 29700 nM in the data set on U2OS; greater than 50000 nM in the data set with K562-Tax; greater than 50000 nM in the data set with K562. The IC50 in the data set with BJ is greater than 50000 nM; in the data set with CEM-DNR it was 23000 nM; in the data set with HCT116, greater than 50000 nM; with HCT116p53−/− it was greater than 50000 nM. Moreover, the “cytotoxic effect in the cell line panel (in words)” value (“cytotoxic effect” for short) in the data set on entire cell line panel [1] was “weak or medium cytotoxic effect”.

Consider `C=C(C)[C@@H]1CC[C@]2(C(=O)NCCCN)CC[C@]3(C)[C@H](CC[C@@H]4[C@@]5(C)CC[C@H](O)C(C)(C)[C@@H]5CC[C@]43C)[C@@H]12` [Compound 3, (3β)-N-(3-Aminopropyl)-3-hydroxylup-20(29)-ene-28-amide], for which the “cytotoxic effect” value in the data set on entire cell line panel [2] is listed as “high cytotoxicity”. The “RNA synthesis by BrU (in words)” value in the data set on CCRF-CEM lymphoblasts [3] is given as “stalled RNA synthesis”. Moreover, the IC50 in the data set with A549 is 1800 nM; with MRC-5 it was 2590 nM; in the data set on CCRF-CEM, 210 nM; in the data set on U2OS, 890 nM; with K562-Tax, 370 nM; in the data set on K562 it was 900 nM. Besides, the IC50 in the data set on BJ was found to be 1910 nM; in the data set with CEM-DNR, 1220 nM; in the data set with HCT116, 820 nM; in the data set on HCT116p53−/−, 440 nM. In addition, the “fraction of proliferating BrDU positive CCRF-CEM cells (in words)” value (from here on “fraction”) in the data set with CCRF-CEM lymphoblasts [4] is given as “reduced the fraction of proliferating BrDU positive CCRF-CEM cells”. Further, the “rate of cell division by mitotic marker pH3Ser10 (in words)” value (shortened to “rate of cell division”) with CCRF-CEM lymphoblasts [5] is given as “low rate of cell division”. In addition, the “concentration at which highly toxic to HEK 293 cells” value with HEK 293 cells is “lower than 5 µM”.

Take `C=C(C)[C@@H]1CC[C@]2(C(=O)NCCCN)CC[C@]3(C)[C@H](CC[C@@H]4[C@@]5(C)CC[C@H](OC(=O)CCNC6=C7C=CC=[N+]7[B-](F)(F)n7cccc76)C(C)(C)[C@@H]5CC[C@]43C)[C@@H]12` [Compound 6, (3β)-N-(3-Aminopropyl)-3-[N´-(4,4-difluoro-4-bora-3a,4a-diaza-s-indacene-8-yl)-β-alanyl]-oxy-lup-20(29)-ene-28-amide]: the “cytotoxic effect” value in the data set with entire cell line panel [2] was “high cytotoxicity”. For the same compound, the IC50 with A549 is 6650 nM; with MRC-5, 8070 nM; in the data set “in vitro”, 12000 nM; in the data set with CCRF-CEM, 1550 nM; in the data set on U2OS it was 5000 nM; with K562-Tax, 31800 nM. Further, the IC50 stood at 5250 nM with K562; 8370 nM in the data set with BJ; 11500 nM in the data set on CEM-DNR; 3850 nM in the data set with HCT116; 3390 nM in the data set on HCT116p53−/−. The “fraction” value in the data set with CCRF-CEM lymphoblasts [4] is reported as “reduced the fraction of proliferating BrDU positive CCRF-CEM cells”. Moreover, in the data set with CCRF-CEM lymphoblasts [5], the “rate of cell division” value is listed as “low rate of cell division”. In addition, in [6], the “colocalization with cellular structures” value was “almost perfectly label mitochondria and endoplasmic reticulum”. Moreover, the “detection in living cells” value in the data set on U2OS-Nuc cell line is recorded as “detected in living cells”.

Turning to `C=C(C)[C@@H]1CC[C@]2(C(=O)N3CCN(CCN)CC3)CC[C@]3(C)[C@H](CC[C@@H]4[C@@]5(C)CC[C@H](O)C(C)(C)[C@@H]5CC[C@]43C)[C@@H]12` [Compound 14, (3β)-28-[4-(2-Aminoethyl)piperazine-1-yl]-3-hydroxylup-20(29)-ene-28-one hydrochloride], in the data set on entire cell line panel [2], the “cytotoxic effect” value is “high cytotoxicity”. In addition, the “RNA synthesis by BrU (in words)” value in the data set with CCRF-CEM lymphoblasts [3] was “stalled RNA synthesis”. For the same compound, the IC50 is 1260 nM with A549; 1580 nM in the data set on MRC-5; 290 nM with CCRF-CEM; 420 nM in the data set on U2OS; 520 nM in the data set with K562-Tax; 400 nM with K562. Moreover, the IC50 came to 1590 nM in the data set on BJ, 350 nM in the data set on CEM-DNR, 390 nM in the data set on HCT116 and 440 nM with HCT116p53−/−. For the same compound, in the data set on CCRF-CEM lymphoblasts [4], the “fraction” value is listed as “reduced the fraction of proliferating BrDU positive CCRF-CEM cells”. The “rate of cell division” value in the data set on CCRF-CEM lymphoblasts [5] is “low rate of cell division”. Besides, the “concentration at which highly toxic to HEK 293 cells” value with HEK 293 cells is given as “lower than 5 µM”. Further, the “increase of the percentage of cells in the S-phase compared to untreated control” value in the data set with CCRF-CEM lymphoblasts [7] was “about 50%”.
